Experimental data published in patent US20100056519A1, “COMPOSITION AND METHOD FOR REDUCING PLATELET ACTIVATION AND FOR THE TREATMENT OF THROMBOTIC EVENTS” (priority 2008, published 2010).
Marks after values point to notes of the source that are not given here.

System: platelets
Assay: Platelet Function Analyzer PFA-100, ADP/Collagen cartridge
Format: cell-based, human
Settings: for Closure time (s): recording limit 300 s
Description: The methodology employed was conventional aggregation induced by 5 μM ADP, 1 μg/ml collagen, 10 μM TRAP, whole blood aggregation with 1 μg/ml collagen, Ultegra, and PFA-100 Analyzers, expression of 14 intact, and TRAP-stimulated major receptors by whole blood flow cytometry were utilized to assess platelet activity after preincubation with escalating concentrations of E5555 (20 ng/ml, 50 ng/ml, and 100 ng/ml). The experiments were performed in healthy volunteers, CAD patients treated with ASA, and CAD patients treated with ASA and clopidogrel combination (n=10, for each group).
An Informed Consent was obtained from all volunteers. Drug users were excluded from data analysis. The study was approved by Quorum Institutional Review Board. All subjects underwent blood sampling after at least 30 minutes of rest and two or more hours of fasting. Blood (28 ml) was drawn between 8 and 10 a.m. in order to avoid any diurnal influence and sampled from an antecubital vein using a 21-gauge butterfly needle containing 3.2% sodium citrate (1:9 volume) after having discarded the first 1.5 ml of free running blood. Four Vacutainer tubes (7.0 ml) were collected for a total of 28 ml of whole blood-citrate mixture from each study participant. Chronologically, blood samples were delivered to the core laboratory facility within 45 minutes after drawing. Then all tubes of blood-citrate mixture were pooled. One portion of pooled blood (5 ml) was kept as an internal control and pretreated with the vehicle. The remaining blood (23 ml) was used for the in vitro exposure to E5555 at concentrations of 20 ng/ml, 50 ng/ml, and 100 ng/ml. […] The platelet aggregation studies, Rapid Analyzers measures, and flow cytometry preparations were initiated within no more than 110 minutes following the blood draw, incubation with the drug, and preparation of the samples.
Whole blood aggregation was determined using a Chronolog device 592A. The whole blood-citrate mixture was diluted 1:1 with 0.5 ml phosphate buffered saline and gently swirled. The sample then was allowed to warm to 37° C. for 5 minutes then transferred to the assay well. The electrode was then placed in the cuvette and the sample was stimulated with 1 μg/ml collagen. The change in electrical impedance was digitally recorded. Each whole blood sample was analyzed utilizing 2 different clinical devices: • (1) a Rapid Platelet-Function Assay (Ultegra®) (Accumetrics, Inc., San Diego, Calif.), which is a rapid platelet-function assay aspirin cartridge test with TRAP used as agonist. Polystyrene beads coated with fibrinogen are placed in a cartridge along with the peptide that activates thrombin receptor. Anticoagulated whole blood was added to the cartridge, and agglutination between platelets and coated beads was recorded. The data mirrors turbidimetric platelet aggregation and presumably reflects platelet glycoprotein IIb/IIIa blockade. Ultegra RPFA-TRAP Assay results were reported as Platelet Activation Units (PAU); and • (2) Platelet-Function Analyzer PFA-100 ™ (Dade Behring, Deerfield Ill.), which is a high shear-inducing analyzer that simulates primary hemostasis after injury to a small vessel under flow conditions. The device provides a constant negative pressure that aspirates whole blood, which comes into contact with the collagen, coated membrane and then passes through the aperture. The time required to obtain occlusion of the aperture is digitally recorded. The time to aperture occlusion (the closure time) is recorded in seconds and is inversely related to the degree of shear-induced platelet activation. We used ADP/Collagen cartridges in the index study. Both PFA-100 and Ultegra assays were performed in duplicate. An electronic quality control test was performed on each instrument daily prior to performing any patient samples.

`Br.CCOc1cc2c(c(F)c1OCC)C(=N)N(CC(=O)c1cc(N3CCOCC3)c(OC)c(C(C)(C)C)c1)C2` [E5555, 1-(3-tert-butyl-4-methoxy-5-morpholinophenyl)-2-(5,6-diethoxy-7-fluoro-1-imino-1,3-dihydro-2H-isoindol-2-yl)ethanone hydrobromide] was tested, and the “Closure time (s)” value (E5555 20 ng/ml, Patients (ASA + C)) was >300*† s, the “Closure time (s)” value (E5555 20 ng/ml, Patients (ASA)) was >300*† s and the “Closure time (s)” value (E5555 20 ng/ml, Volunteers) was >300*† s. For the same compound, the “Closure time (s)” value (E5555 50 ng/ml, Patients (ASA + C)) was >300*† s, the “Closure time (s)” value (E5555 50 ng/ml, Patients (ASA)) was >300*† s and the “Closure time (s)” value (E5555 50 ng/ml, Volunteers) was >300*† s. For the same compound, the “Closure time (s)” value (E5555 100 ng/ml, Patients (ASA + C)) was >300*† s, the “Closure time (s)” value (E5555 100 ng/ml, Patients (ASA)) was >300*† s and the “Closure time (s)” value (E5555 100 ng/ml, Volunteers) was >300*† s. For the same compound, the “Platelet Analyzer readings, shear-induced activation, effect in words” value (overall summary) was “reduced shear-induced activation”.
